Like-named read-outs stand apart in the source and are kept apart here.
Columns and labels:
human 5-HT2CR [1] = target: T1, human 5-HT2CR (Homo sapiens, UniProt P28335); assay: [125I]DOI competition binding assay
Protocol: (§1) Following incubation, the samples were filtered rapidly under vacuum through glass fiber filters (GF/B, Packard) presoaked with 0.3% polyethylenimine and rinsed several times with ice cold wash buffer (50 mM Tris-HCl, pH 7.4) using a 96-sample cell harvester (Unifilter, Packard). The filters were dried and then counted for radioactivity in a scintillation counter (Topcounter, Packard) using a scintillation cocktail (Microscint-0, Packard).

human 5-HT2BR = target: T2, human 5-HT2BR (Homo sapiens, UniProt P41595); assay: [125I]DOI competition binding assay
T2 construct: host or cells: HEK293 (membrane homogenates)
T2 sequence (P41595 whole entry): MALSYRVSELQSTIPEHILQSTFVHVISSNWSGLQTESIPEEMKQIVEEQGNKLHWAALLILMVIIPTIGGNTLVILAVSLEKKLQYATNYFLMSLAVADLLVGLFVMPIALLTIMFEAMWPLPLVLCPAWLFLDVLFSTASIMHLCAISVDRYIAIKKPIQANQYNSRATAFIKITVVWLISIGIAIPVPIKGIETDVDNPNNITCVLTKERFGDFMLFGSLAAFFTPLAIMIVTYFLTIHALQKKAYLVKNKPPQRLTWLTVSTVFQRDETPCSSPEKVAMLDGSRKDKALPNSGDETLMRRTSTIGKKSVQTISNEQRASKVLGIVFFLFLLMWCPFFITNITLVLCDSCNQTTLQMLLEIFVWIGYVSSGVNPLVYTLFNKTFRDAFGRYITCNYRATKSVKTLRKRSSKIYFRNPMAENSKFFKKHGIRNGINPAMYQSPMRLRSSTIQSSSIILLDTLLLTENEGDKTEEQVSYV
Protocol: as §1

human 5-HT2CR [2] = target: T1, human 5-HT2CR; assay: Ca2+/Fluo-4 assay, antagonist mode (5-HT EC90 as agonist), stable 5-HT2CR-HEK293 cells
human 5-HT2AR = human 5-HT2AR (Homo sapiens, UniProt P28223); assay: Ca2+/Fluo-4 assay, agonist mode, stable 5-HT2AR-HEK293 cells; conditions: for EC50: at least 3 independent experiments; for 5-HT2AR pEC50 ± S.E.M. / 5-HT2AR Rmax ± S.E.M.: Table S2; for 5-HT2AR Rmax (%): % of the 5-HT Rmax; for 5-HT2AR Rmax ± S.E.M.: % of the 5-HT Rmax on the same 96-well plate
Chain of human 5-HT2AR (P28223 whole entry): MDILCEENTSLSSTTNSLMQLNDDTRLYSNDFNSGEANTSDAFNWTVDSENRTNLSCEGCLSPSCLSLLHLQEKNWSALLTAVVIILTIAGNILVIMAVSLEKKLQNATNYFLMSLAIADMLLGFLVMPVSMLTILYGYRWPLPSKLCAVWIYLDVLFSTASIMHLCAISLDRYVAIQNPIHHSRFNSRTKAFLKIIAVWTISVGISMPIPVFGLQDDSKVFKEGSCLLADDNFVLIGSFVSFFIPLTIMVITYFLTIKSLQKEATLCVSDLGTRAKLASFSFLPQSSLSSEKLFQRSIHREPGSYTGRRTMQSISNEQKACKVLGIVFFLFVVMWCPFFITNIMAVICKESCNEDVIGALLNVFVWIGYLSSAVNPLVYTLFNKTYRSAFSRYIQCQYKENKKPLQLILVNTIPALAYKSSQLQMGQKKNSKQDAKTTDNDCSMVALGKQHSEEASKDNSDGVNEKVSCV

human 5-HT2CR [3] = target: T1, human 5-HT2CR; assay: Ca2+/Fluo-4 assay, agonist mode, stable 5-HT2CR-HEK293 cells
MDR1-MDCKII = assay: MDR1-MDCK II permeability assay; assay type: in vitro ADME; conditions: Table S6
MDR1 = assay: MDR1-MDCK II permeability assay; assay type: in vitro ADME; conditions: dog, MDCK-MDR1, pH 7.4, Table S6
MDR1 (P-gp) = assay: MDR1-MDCK II permeability assay; assay type: in vitro ADME; conditions: dog, MDCK-MDR1, pH 7.4
[4] = tested on: 5-HT2AR, 5-HT2BR, and 5-HT2CR; conditions: cited from earlier work
[5] = 5-HT2CR pIC50 ± S.E.M., Table S2
[6] = 5-HT2CR EC50 (nM), Table 1, at least 3 independent experiments
[7] = read-out: 5-HT2AR EC50, Table 1
[8] = read-out: 5-HT2AR EC50, Table 2
[9] = read-out: 5-HT2CR EC50, Table 2, at least 3 independent experiments
[10] = 5-HT2CR EC50 (nM), Table 2, at least 3 independent experiments

T1 sequence (P28335 33-458): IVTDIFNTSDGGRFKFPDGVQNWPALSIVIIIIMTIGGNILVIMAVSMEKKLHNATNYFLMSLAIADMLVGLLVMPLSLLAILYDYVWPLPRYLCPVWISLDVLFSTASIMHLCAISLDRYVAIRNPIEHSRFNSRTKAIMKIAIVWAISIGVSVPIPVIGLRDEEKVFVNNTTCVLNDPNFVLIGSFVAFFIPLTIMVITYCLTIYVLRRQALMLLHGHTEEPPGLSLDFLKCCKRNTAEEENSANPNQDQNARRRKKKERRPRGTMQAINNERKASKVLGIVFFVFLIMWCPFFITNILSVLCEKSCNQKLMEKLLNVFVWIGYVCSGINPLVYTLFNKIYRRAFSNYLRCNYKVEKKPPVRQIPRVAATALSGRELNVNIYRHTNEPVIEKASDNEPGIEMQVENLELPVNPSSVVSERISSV

For `COc1cc(CC(C)N)c(OC)cc1I` (racemic) [(±)-DOI, 1-(4-iodo-2,5-dimethoxyphenyl)propan-2-amine, reference compound], the Ki (human 5-HT2CR [1]) was 0.51 nM and the Ki (human 5-HT2BR) was 1.23 nM.

`COc1cc(C2CCCNC2)c(OC)cc1Br` (centres unmarked) [Compound 6eu, 3-(4-Bromo-2,5-dimethoxyphenyl)piperidine] gave an IC50 (human 5-HT2CR [2]; 5-HT2CR IC50, Table 1) of 640 nM, an IC50 (human 5-HT2CR [2]; [5]) of 631 nM and an EC50 (human 5-HT2AR; 5-HT2AR EC50 (nM), Table 1) of 69 nM. For the same compound, the “agonist activity at 5-HT2CR (in words)” value (human 5-HT2CR [3]) was “devoid of measurable agonist activity” and the EC50 (human 5-HT2CR [3]; [6]) was > 50000 nM.

For `COc1cc(C2CCCNC2)c(OC)cc1Cl` (centres unmarked) [Compound 8eu, 3-(4-Chloro-2,5-dimethoxyphenyl)piperidine], the IC50 (human 5-HT2CR [2]; [5]) was 871 nM, the “5-HT2AR pEC50 ± S.E.M.” value (human 5-HT2AR) was 7.18 ± 0.05 and the EC50 (human 5-HT2AR; [7]) was 66 nM. The EC50 (human 5-HT2CR [3]; [6]) was > 50000 nM.

With `COc1cc(C2CCCNC2)c(OC)cc1I` (centres unmarked) [Compound 9eu, 3-(4-Iodo-2,5-dimethoxyphenyl)piperidine] the IC50 (human 5-HT2CR [2]; [5]) was 1100 nM, the “5-HT2AR pEC50 ± S.E.M.” value (human 5-HT2AR) was 7.43 ± 0.02 and the EC50 (human 5-HT2AR; [7]) was 37 nM. The EC50 (human 5-HT2CR [3]; [6]) was > 50000 nM.

For `COc1cc(C2CCCNC2)c(OC)cc1C#N` (centres unmarked) [Compound 10eu, 2,5-Dimethoxy-4-(piperidin-3-yl)benzonitrile], the IC50 (human 5-HT2CR [2]; [5]) was ~15800 nM, the “5-HT2AR pEC50 ± S.E.M.” value (human 5-HT2AR) was 6.56 ± 0.13 and the EC50 (human 5-HT2AR; [7]) was 270 nM. For the same compound, the EC50 (human 5-HT2CR [3]; [6]) was > 50000 nM.

With `COc1cc(C2CCCNC2)ccc1C(F)(F)F.Cl` (centres unmarked) [Compound 23dis, 3-(3-Methoxy-4-(trifluoromethyl)phenyl)piperidine Hydrochloride] the “5-HT2AR Rmax (%)” value (human 5-HT2AR; Table 2) was 65%, the “5-HT2AR pEC50 ± S.E.M.” value (human 5-HT2AR) was 5.61 ± 0.07 and the “5-HT2AR Rmax ± S.E.M.” value (human 5-HT2AR) was 65 ± 3%. For the same compound, the EC50 (human 5-HT2AR; [8]) was 2500 nM, the “5-HT2CR Rmax (%)” value (human 5-HT2CR [3]; Table 2, % of the 5-HT Rmax) was 35% and the “5-HT2CR pEC50 ± S.E.M.” value (human 5-HT2CR [3]; Table S2) was 5.85 ± 0.13. The “5-HT2CR Rmax ± S.E.M.” value (human 5-HT2CR [3]; Table S2, % of the 5-HT Rmax on the same 96-well plate) was 35 ± 3% and the EC50 (human 5-HT2CR [3]; [9]) was 1400 nM.

In the case of `COc1cc(C2CCCNC2)ccc1C(F)(F)F.Cl` (centres unmarked) [Compound 23eu, 3-(3-Methoxy-4-(trifluoromethyl)phenyl)piperidine Hydrochloride], the “5-HT2AR Rmax (%)” value (human 5-HT2AR; Table 2) is reported as 68%, the “5-HT2AR pEC50 ± S.E.M.” value (human 5-HT2AR) is reported as 5.74 ± 0.09 and the “5-HT2AR Rmax ± S.E.M.” value (human 5-HT2AR) is reported as 68 ± 7%. The EC50 (human 5-HT2AR; [8]) was 1800 nM and the EC50 (human 5-HT2CR [3]; [10]) was > 10000 nM.

For `CCOc1cc(C(F)(F)F)c(OC)cc1C1CCCNC1.Cl` (centres unmarked) [Compound 24dis, 3-(2-Ethoxy-5-methoxy-4-(trifluoromethyl)phenyl)piperidine Hydrochloride], the “5-HT2AR Rmax (%)” value (human 5-HT2AR; Table 2) was 77%, the “5-HT2AR pEC50 ± S.E.M.” value (human 5-HT2AR) was 6.39 ± 0.08 and the “5-HT2AR Rmax ± S.E.M.” value (human 5-HT2AR) was 77 ± 7%. The EC50 (human 5-HT2AR; [8]) was 410 nM, the EC50 (human 5-HT2CR [3]; [10]) was > 10000 nM and the “5-HT2CR pEC50 ± S.E.M.” value (human 5-HT2CR [3]; Table S2) was 5.56 ± 0.02. It also gave an EC50 (human 5-HT2CR [3]; read-out: 5-HT2CR EC50, Table S2) of 2700 nM.

In the case of `CCOc1cc(C(F)(F)F)c(OC)cc1C1CCCNC1.Cl` (centres unmarked) [Compound 24eu, 3-(2-Ethoxy-5-methoxy-4-(trifluoromethyl)phenyl)piperidine Hydrochloride], the “5-HT2AR Rmax (%)” value (human 5-HT2AR; Table 2) is reported as 40%, the “5-HT2AR pEC50 ± S.E.M.” value (human 5-HT2AR) is reported as 7.42 ± 0.10 and the “5-HT2AR Rmax ± S.E.M.” value (human 5-HT2AR) is reported as 40 ± 3%. The EC50 (human 5-HT2AR; [8]) was 38 nM and the EC50 (human 5-HT2CR [3]; 5-HT2CR EC50, Table S2) was > 10000 nM.

With `CCOc1cc(C2CCCNC2)c(OC)cc1C(F)(F)F.Cl` (centres unmarked) [Compound 25dis, 3-(5-Ethoxy-2-methoxy-4-(trifluoromethyl)phenyl)piperidine Hydrochloride] the “5-HT2AR Rmax (%)” value (human 5-HT2AR; Table 2) was 86%, the “5-HT2AR pEC50 ± S.E.M.” value (human 5-HT2AR) was 6.50 ± 0.10 and the “5-HT2AR Rmax ± S.E.M.” value (human 5-HT2AR) was 86 ± 6%. For the same compound, the EC50 (human 5-HT2AR; [8]) was 320 nM and the EC50 (human 5-HT2CR [3]; [10]) was > 10000 nM.

For `CCOc1cc(C2CCCNC2)c(OC)cc1C(F)(F)F.Cl` (centres unmarked) [Compound 25eu, 3-(5-Ethoxy-2-methoxy-4-(trifluoromethyl)phenyl)piperidine Hydrochloride], the “5-HT2AR Rmax (%)” value (human 5-HT2AR; Table 2) was 95%, the “5-HT2AR pEC50 ± S.E.M.” value (human 5-HT2AR) was 7.99 ± 0.11 and the “5-HT2AR Rmax ± S.E.M.” value (human 5-HT2AR) was 95 ± 1%. For the same compound, the EC50 (human 5-HT2AR; [8]) was 10 nM, the “5-HT2CR pEC50 ± S.E.M.” value (human 5-HT2CR [3]; Table S2) was 6.54 ± 0.04 and the EC50 (human 5-HT2CR [3]; [9]) was 290 nM.

With `CCOc1cc(C(F)(F)F)c(OCC)cc1C1CCCNC1.Cl` (centres unmarked) [Compound 26dis, 3-(2,5-Diethoxy-4-(trifluoromethyl)phenyl)piperidine Hydrochloride] the “5-HT2AR Rmax (%)” value (human 5-HT2AR; Table 2) was 69%, the “5-HT2AR pEC50 ± S.E.M.” value (human 5-HT2AR) was 5.52 ± 0.06 and the “5-HT2AR Rmax ± S.E.M.” value (human 5-HT2AR) was 69 ± 4%. For the same compound, the EC50 (human 5-HT2AR; [8]) was 3000 nM and the EC50 (human 5-HT2CR [3]; [9]) was > 10000 nM.

For `CCOc1cc(C(F)(F)F)c(OCC)cc1C1CCCNC1.Cl` (centres unmarked) [Compound 26eu, 3-(2,5-Diethoxy-4-(trifluoromethyl)phenyl)piperidine Hydrochloride], the “5-HT2AR Rmax (%)” value (human 5-HT2AR; Table 2) was 47%, the “5-HT2AR pEC50 ± S.E.M.” value (human 5-HT2AR) was 6.99 ± 0.07 and the “5-HT2AR Rmax ± S.E.M.” value (human 5-HT2AR) was 47 ± 6%. For the same compound, the EC50 (human 5-HT2AR; [8]) was 100 nM, the “fold drop in agonist potency (fold higher EC50) at 5-HT2AR” value (human 5-HT2AR; relative to (S)-11) was 30 fold and the EC50 (human 5-HT2CR [3]; [10]) was > 10000 nM.

For `C[C@H]1O[C@@H](O[C@H]2[C@@H](O)C[C@H](O[C@H]3[C@@H](O)C[C@H](O[C@H]4CC[C@@]5(C)[C@H](CC[C@@H]6[C@@H]5C[C@@H](O)[C@]5(C)[C@@H](C7=CC(=O)OC7)CC[C@]65O)C4)O[C@@H]3C)O[C@@H]2C)C[C@H](O)[C@@H]1O` [Digoxin], the “Rank Papp” value (MDR1-MDCKII) was “Low”, the recovery at […] (MDR1; read-out: Mean Recovery B to A) was 92% and the Papp A→B at […] (MDR1 (P-gp)) was 0.22 ×10⁻⁶ cm/s. It also gave a Papp B→A at […] (MDR1 (P-gp)) of 12.4 ×10⁻⁶ cm/s.

For `COCCc1ccc(OCC(O)CNC(C)C)cc1` (centres unmarked) [Metoprolol], the “Rank Papp” value (MDR1-MDCKII) was “High”, the recovery at […] (MDR1; read-out: Mean Recovery A to B) was 97% and the Papp A→B at […] (MDR1 (P-gp)) was 24.2 ×10⁻⁶ cm/s.

With `CC(C)(C)NCC(O)COc1cccc2c1CC(O)C(O)C2` (centres unmarked) [Nadolol] the “Rank Papp” value (MDR1-MDCKII) was “Low”, the recovery at […] (MDR1; read-out: Mean Recovery A to B) was 93% and the Papp A→B at […] (MDR1 (P-gp)) was 0.54 ×10⁻⁶ cm/s.

For `CN(C)CCc1c[nH]c2cccc(O)c12` [psilocin], the “agonist profile at 5-HT2AR, 5-HT2BR, and 5-HT2CR (in words)” value [4] is listed as “equipotent and equiefficacious agonist”.

From PMC11089506 (Journal of Medicinal Chemistry, 2024)
